Results reported in article PMC5617480 (Oncotarget, 2017).

How the values were obtained:
[1] = test system: F32T+H20M (DNA, duplex) CCGCATCTCTACATTCAAGAACTGGCATGCGG/GCCAGTTCTTGAATGTAGAG; assay: FRET melting; settings: 100 mM K+; 10 mM Tris-HCl, pH 7.35; 2.0 μM compound, 1.0 μM DNA
[2] = test system: F21T (DNA, G4) GGGCTAGGGCTAGGGCTAGGG; assay: FRET melting; settings: 100 mM K+; 10 mM Tris-HCl, pH 7.35; 2.0 μM compound, 1.0 μM DNA
c-kit-2 = test system: c-kit-2; design: method as in earlier work; settings: ref [1], cited from earlier work; for ctDNADC50/c-kit-2DC50: FID selectivity ratio; for c-kit-2DC50: FID
BEL-7402 xenograft = assay: In vivo tumor growth inhibition, BEL-7402 xenograft model; settings: BEL-7402 model; for Average tumor weight (mean ± SD g) / Tumor volume (End) / Body weight (End) / RBW (%) (End): day 18; for inhibition in weight: p<0.05
Experimental: In vivo anticancer efficacy of chiral platinum(II) complex 6 was evaluated using BEL-7404 and BEL-7402 xenograft mouse models. BEL-7404 and BEL-7402 cells were injected into nude mice. The mice were randomized into the control group, complex 6-treated group, and the positive control group (n = 6/group). When the volume of tumor was about 80 mm^3, complex 6 was given at a high (8 mg/kg) and low (4 mg/kg) dosage daily for 18 days, 5-FU (20 mg/kg every two days) and Cisplatin (2 mg/kg every two days) were used as a positive control in the BEL-7404 and BEL-7402 xenograft model, respectively.
To evaluate the vivo anticancer efficacy of complex 6, BEL-7404 and BEL-7402 xenograft mouse models (BALB/c nude mice, female for BEL-7404 model, 17–20 g, 6–7 weeks old; male for BEL-7402 model, 18-21 g, 6–7 weeks old) were used. Furthermore, animal used, maximum tolerated dose (MTD) analysis, acute toxicity studies and antitumor activity toward BEL-7404 and BEL-7402 models in vivo of complex 6, was similar to Chen reported.
H21T (3.5 pmol; 5’-G [T AG ] -3’), primer TS (18 pmol; tumor tissue were cut into about 1.5 mm3 small pieces, and […]
5’-[…]-3’), KCl (63 mM), then transplanted into the right flank of nude mice. When EGTA (1 mM), MgCl (1.5 mM), Tween-20 (0.005%), the average tumors reach a volume of about 80 mm3, the […]
primer NT (7.5 pmol; 5’-[…]-3’), mice were randomized into 4 groups (n=6), received the […]
TSNT internal control (0.01 amol; 5’-[…] following treatments: (a) control, received saline solvent; […]
-3’), primer (b) complex 6 at doses of 8.0 mg/kg daily (dissolve in […]
Cxext (22.5 pmol; 5’-[…] saline, iv); (c) complex 6 at doses of 4.0 mg/kg daily; […]
[…]-3’), Taq DNA polymerase (2.5 U), and (d) in BEL-7404 model, 5-fluorouracil (5-Fu) as positive telomerase (100 ng). Complexes or/and distilled water control at 20 mg/kg per two days (dissolve in saline, iv); was added ([…]). PCR was performed in an Eppendorf in BEL-7402 model, cisplatin as positive control at 2 mg/ Master cycler equipped with a hot lid and incubated for kg per two days (dissolve in saline, iv).
30.0 min at 30 °C, followed by 92 °C 30 s, 52 °C 30 s, The tumor volumes and body weight was monitored and 72°C 30 s for 30.0 cycles. After amplification, 8.0 every 3 days, The tumor volumes were estimated by […] loading buffer (5×TBE buffer, 0.2% xylene cyanol, measuring the two dimensions of the tumors using caliper and 0.2% bromophenol blue ) were added to the reaction. and calculated by the formula 1 [1, 6, 14]:
An […] of aliquot was loaded onto a nondenaturing V = (length × width2)/2(1) acrylamide gel (19:1, 16%) in 1×TBE buffer and resolved at 200.0 V for 1.0 h. Gels were fixed and then stained with On day 18, the mice were sacrificed, and tumor AgNO3 [8–11]. tissue were dissected out and weighted, tumor growth inhibition rate calculated using formulas 2 and 3 [1, 6,
In order to verify whether complexes 4–6 can TGI (%) = (ΔVc − ΔVt)/ΔVc×100%(2) directly regulate c-myc promoter (Pu27) and the IR(%) = (Wc − Wt)/Wc×100%(3) expression of hTRET in BEL-7404 cells, consequently Where ΔVt = tumor volumefinal −tumor volumeinitial inhibiting the telomerase function, we constructed EGFP for compound treated group, ΔVc=tumor volumefinal − and c-myc gene vectors according to those illustrated tumor volumeinitial for vehicle control group; Wt and Wc in Chalfie, Chen and He previous work. The detailed mean the average tumor weight of complex-treated and procedures for the construct of gene (c-myc and EGFP vehicle controlled group respectively. genes) vectors, and the method of transfection assays REFERENCES have been reported by Chalfie, Chen and He [1, 6, 9, 12,

[3] = Cisplatin 2.0 mg/kg per two days iv

O=C(NCC(O)CO)c1cnc2c3c(cccc13)-c1ccccc1C2=O.[Cl-].[Cl-].[Pt+2] (racemic) [ligand 1, R/S-(±)-FOA]
ΔTm [1]: 1.18 °C
ΔTm [2]: 13.19 °C
ctDNADC50/c-kit-2DC50 (c-kit-2): < 0.64
c-kit-2DC50 (c-kit-2): > 100 µM

N.N.[Cl][Pt][Cl] [cisplatin, reference compound]
Tumor volume (start) (BEL-7402 xenograft; [3]): 78.6±37.7 mm3
Average tumor weight (mean ± SD g) (BEL-7402 xenograft; [3]): 0.38 ± 0.18 g
Tumor volume (End) (BEL-7402 xenograft; [3]): 329.9±155.2 mm3

O=C(NC[C@@H](O)CO)c1cnc2c3c(cccc13)-c1ccccc1C2=O.[Cl-].[Cl-].[Pt+2] [ligand 2, R-(+)-FOA]
ΔTm [1]: 1.34 °C
ΔTm [2]: 12.95 °C
ctDNADC50/c-kit-2DC50 (c-kit-2): < 0.40
c-kit-2DC50 (c-kit-2): > 100 µM

O=C(NC[C@H](O)CO)c1cnc2c3c(cccc13)-c1ccccc1C2=O.[Cl-].[Cl-].[Pt+2] [ligand 3, S-(–)-FOA]
ΔTm [1]: 0.78 °C
ΔTm [2]: 20.07 °C
ctDNADC50/c-kit-2DC50 (c-kit-2): 3.92
c-kit-2DC50 (c-kit-2): 22.94 µM

cis-[PtCl2(S-(–)-FOA)] [complex 6]
inhibition in weight (BEL-7402 xenograft; 4 mg/kg daily for 18 days): 32.9%
inhibition in weight (BEL-7402 xenograft; 8 mg/kg daily for 18 days): 47.1%
Body weight (start) (BEL-7402 xenograft; 6 4.0 mg/kg daily iv): 19.1 ± 1.6 g
Tumor volume (start) (BEL-7402 xenograft; 6 4.0 mg/kg daily iv): 78.7±58.4 mm3
Average tumor weight (mean ± SD g) (BEL-7402 xenograft; 6 4.0 mg/kg daily iv): 0.84 ± 0.39 g
Body weight (End) (BEL-7402 xenograft; 6 4.0 mg/kg daily iv): 22.3 ± 1.3 g
RBW (%) (End) (BEL-7402 xenograft; 6 4.0 mg/kg daily iv): 117.7±6.3%
Tumor volume (End) (BEL-7402 xenograft; 6 4.0 mg/kg daily iv): 648.8±242.1 mm3
TGI (%) (BEL-7402 xenograft; 6 4.0 mg/kg daily iv, day 18, by tumor volume): 32.9%
Inhibition of tumor growth (%) (BEL-7402 xenograft; 6 4.0 mg/kg daily iv, day 18, by tumor weight): 29.4%
Body weight (start) (BEL-7402 xenograft; 6 8.0 mg/kg daily iv): 20.2 ± 0.7 g
Tumor volume (start) (BEL-7402 xenograft; 6 8.0 mg/kg daily iv): 79.4±28.4 mm3
Average tumor weight (mean ± SD g) (BEL-7402 xenograft; 6 8.0 mg/kg daily iv): 0.67 ± 0.46 g
Body weight (End) (BEL-7402 xenograft; 6 8.0 mg/kg daily iv): 23.4 ± 1.4 g
RBW (%) (End) (BEL-7402 xenograft; 6 8.0 mg/kg daily iv): 115.5±4.6%
Tumor volume (End) (BEL-7402 xenograft; 6 8.0 mg/kg daily iv): 521.0±319.9 mm3
